Article PMC10770036, “Novel dual inhibitors of PARP and HDAC induce intratumoral STING-mediated antitumor immunity in triple-negative breast cancer” (Cell Death & Disease, 2024)

Experiments:
[1] = tested on: RAD51; test: Western blot of RAD51 expression in TNBC cells; type: cell-based, human; settings: 2.5 μM compared with the positive controls at 5 μM, 24 h
Method: (§1) Western blot analysis was performed as previously described, and all western blot analyses were performed at least three times.
(§2) Western blot analysis was performed as previously described. Briefly, whole cell or tissue lysates were prepared using ice-cold Nonidet P-40 buffer mixed with protease and phosphatase inhibitors (Roche, IN, USA) and centrifuged at 14,000 × g at 4 °C for 10 min. The protein lysates were fractionated by sodium dodecyl sulfate–polyacrylamide gel electrophoresis (SDS–PAGE) and transferred to polyvinylidene fluoride (PVDF) membranes (Merck, Darmstadt, Germany). Membranes were incubated in 1× TBST buffer containing 5% nonfat powdered milk at room temperature for 2 h. The indicated primary antibody was incubated with PVDF membranes, followed by a washing step using 1× TBST and a secondary antibody conjugated to HRP. Signal detection was carried out using the Western ECL Substrate kit (Bio-Rad, Hercules, CA, USA). […]

[2] = tested on: cGAS–STING signaling pathway; test: Western blot of cGAS–STING pathway activation; type: cell-based, human; settings: MDA-MB-436 cells, 48 h
Method: as §1, §2

SMILES	inhibitory effect on RAD51 [1]	activation of the cGAS–STING signaling pathway [2]
Nc1cc(F)ccc1NC(=O)/C=C/c1ccc(CN2CCN(C(=O)c3cc(Cc4n[nH]c(=O)c5ccccc45)ccc3F)CC2)cc1 [Compound B102]	more potent inhibitory effect on RAD51	
Nc1cc(F)ccc1NC(=O)CCc1ccc(CN2CCN(C(=O)c3cc(Cc4n[nH]c(=O)c5ccccc45)ccc3F)CC2)cc1 [Compound B302]		concentration-dependent activation
